Assay results: patent US10039806B2, “Methods and compositions for treating antiprogestin-resistant cancers” (Fundación Sales, priority 2011, dated 2018)

How the values were obtained:
[1] = system: mammary hyperplasias and carcinomas; conditions: pellets of 35 mg; cited from earlier work
[2] = biological target: T1, glucocorticoid receptor (Homo sapiens, UniProt P04150); conditions: cited from earlier work
T1 sequence (P04150 1-777): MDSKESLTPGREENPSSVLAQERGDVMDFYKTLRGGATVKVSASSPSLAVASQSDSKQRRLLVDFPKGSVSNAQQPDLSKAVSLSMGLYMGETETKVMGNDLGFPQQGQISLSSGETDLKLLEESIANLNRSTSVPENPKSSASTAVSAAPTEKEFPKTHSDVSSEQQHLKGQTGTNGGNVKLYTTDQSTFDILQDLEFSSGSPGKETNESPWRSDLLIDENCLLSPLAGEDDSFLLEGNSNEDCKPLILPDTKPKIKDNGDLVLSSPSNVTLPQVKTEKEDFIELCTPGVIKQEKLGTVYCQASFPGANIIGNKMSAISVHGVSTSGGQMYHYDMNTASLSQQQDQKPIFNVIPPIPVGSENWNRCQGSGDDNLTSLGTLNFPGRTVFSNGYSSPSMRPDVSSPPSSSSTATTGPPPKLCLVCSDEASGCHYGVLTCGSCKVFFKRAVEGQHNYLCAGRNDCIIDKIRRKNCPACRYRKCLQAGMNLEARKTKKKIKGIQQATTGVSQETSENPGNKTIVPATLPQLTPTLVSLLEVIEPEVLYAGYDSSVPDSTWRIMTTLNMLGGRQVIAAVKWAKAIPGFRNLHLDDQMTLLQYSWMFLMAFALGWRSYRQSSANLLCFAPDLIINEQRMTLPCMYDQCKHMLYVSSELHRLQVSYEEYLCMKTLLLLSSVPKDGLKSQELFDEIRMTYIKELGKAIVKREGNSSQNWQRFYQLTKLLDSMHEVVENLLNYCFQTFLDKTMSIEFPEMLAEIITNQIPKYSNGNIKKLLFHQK

[3] = system: MCF-7 cells; conditions: cited from earlier work
[4] = system: T47D-YB cells; conditions: 100 nM; cited from earlier work
[5] = biological target: T2, PR (Homo sapiens, UniProt P06401); conditions: T47D cells transfected with MMTV-CAT; cited from earlier work
T2 sequence (P06401 1-933): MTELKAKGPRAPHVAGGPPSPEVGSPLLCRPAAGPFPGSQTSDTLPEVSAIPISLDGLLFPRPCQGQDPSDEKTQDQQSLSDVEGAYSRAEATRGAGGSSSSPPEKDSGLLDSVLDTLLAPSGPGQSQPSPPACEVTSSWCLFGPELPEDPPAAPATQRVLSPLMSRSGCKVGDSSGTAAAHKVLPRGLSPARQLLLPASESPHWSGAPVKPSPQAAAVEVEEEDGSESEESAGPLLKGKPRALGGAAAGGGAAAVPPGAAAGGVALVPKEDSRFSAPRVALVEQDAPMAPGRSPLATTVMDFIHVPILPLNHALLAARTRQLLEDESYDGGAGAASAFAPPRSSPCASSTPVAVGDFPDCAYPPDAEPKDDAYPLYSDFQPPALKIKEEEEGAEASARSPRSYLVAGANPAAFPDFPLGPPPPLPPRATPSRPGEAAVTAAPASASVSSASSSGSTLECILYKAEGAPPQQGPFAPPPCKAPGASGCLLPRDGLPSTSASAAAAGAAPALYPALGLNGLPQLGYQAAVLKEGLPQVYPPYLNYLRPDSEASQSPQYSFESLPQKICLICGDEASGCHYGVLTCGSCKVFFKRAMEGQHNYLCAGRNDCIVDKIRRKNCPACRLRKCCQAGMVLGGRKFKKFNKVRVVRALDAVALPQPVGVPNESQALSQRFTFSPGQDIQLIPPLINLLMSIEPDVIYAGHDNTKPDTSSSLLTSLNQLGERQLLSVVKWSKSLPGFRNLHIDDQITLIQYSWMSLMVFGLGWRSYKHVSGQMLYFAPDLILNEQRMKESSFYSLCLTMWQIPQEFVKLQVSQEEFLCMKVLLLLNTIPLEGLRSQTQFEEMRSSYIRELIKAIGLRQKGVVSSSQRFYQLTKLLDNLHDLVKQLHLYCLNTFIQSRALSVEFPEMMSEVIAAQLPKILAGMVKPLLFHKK

[6] = system: mammary gland; conditions: cited from earlier work
[7] = system: C4-2-HI and 59-HI cells; assay: (3H)-thymidine incorporation with 5azadC and RU-486 in 10% FCS; assay type: cell-based, mouse; conditions: 5 μM 5azadC, 100 nM RU-486; P<0.001
Method: (3H)-thymidine-uptake was used as an indirect method to evaluate cell proliferation. In brief, cells were seeded into 96-well microplates. After attachment (24 h), the cells were incubated for 24 h with 1% steroid-stripped FCS and then for 48 h with the experimental solutions to be tested in 1% chFCS. Fifty percent of the medium was replaced with fresh medium every 24 h. […] In experiments in which 5azadC was used, the experiments were carried out using proliferating cells (presence of 10% FCS) to guarantee the effect of the demethylating agent. Three different experiments were made using octuplicates, and the means and standard deviations of one representative experiment of the other three are shown.

[8] = system: MCF-7 xenografts; conditions: MIF 50 mg/kg/day, ONA 30 mg/kg/day, 17 days; cited from earlier work
[9] = system: breast cancer samples; assay: Cultured breast cancer slices (chopper), Ki67; assay type: cell-based, human; conditions: 10 nM, 48 hs
From the text: Sections of formalin-fixed, paraffin-embedded tissue were stained with PR (C-19), or Ki67 (Dako, […]) antibodies using the avidin-biotin-peroxidase complex technique (Vectastain Elite ABC kit; Vector), as described previously (6). Positive cells were counted in 10 high-power fields (HPFs) of each section, using 1000× magnification, and expressed as the mean±SEM of the ratio between the number of positive events and the total cell number. Following the previous experiments shown in PART 1, breast cancer samples obtained after surgery from the Hospital General Pacheco (IRB approved by Hospital and IBYME) were used. Whenever possible, part of the sample is immediately frozen to be used in Western blot studies, other part is fixed to be used in IHC studies and a similar part is kept in medium culture. Slices obtained using a chopper were cultured for 48 hs with DMEM/F12 without phenol red and 10% fetal cal serum with or without MFP 10 nM. Tumor slices were then fixed, paraffin embedded and processed for immunohistochemistry. Cell proliferation was evaluated using Ki67 as described above. The number of slices depends on the sample size.

SMILES: CC#C[C@]1(O)CC[C@H]2[C@@H]3CCC4=CC(=O)CCC4=C3[C@@H](c3ccc(N(C)C)cc3)C[C@@]21C [RU-486, mifepristone]
- induction of hyperplasia or carcinoma [1]: prevented the induction of either hyperplasia or carcinoma
- antiglucocorticoid activity [2]: antiglucocorticoid effects, albeit at concentrations higher than those needed for its antiprogestin activity
- E2-induced cell proliferation ([3]; 10 nM, 10% steroid-deficient human serum): inhibited E2-induced cell proliferation
- PR-mediated cell proliferation [3]: inhibited PR-mediated cell proliferation
- progesterone-induced cell proliferation ([3]; nanomolar concentrations): inhibit progesterone-induced cell proliferation
- cell proliferation [4]: increased cell proliferation
- effect in cells treated with analogs of cyclic AMP [5]: exerts an agonistic effect
- PR activation in luminal cells ([6]; (5 mg/kg) body weight): induced activation of the PR in luminal cells to an even greater degree than did the pure agonist R5020
- MPA-induced branching ([6]; BALB/c female mice, 10 mg/kg daily, one week): reverted MPA-induced branching
- mammary hyperplasia ([6]; PR-A transgenic mice or FGF2-treated mice): unable to revert mammary hyperplasia
- cell proliferation, (3H)-thymidine incorporation [7]: did not alter cell proliferation
- E2-induced proliferation of xenografts [8]: inhibited
- Ki67 ([9]; 1 PR negative case): no inhibition was observed
- Ki67 ([9]; 1 case PRA/PRB lower than 1): significant inhibition
- Ki67 ([9]; 2 cases PRA/PRB lower than 1): no inhibition was observed
- Ki67 ([9]; 3 cases PRA/PRB high): significant inhibition of Ki67
- Ki67, stimulation ([9]; PRA/PRB lower than 1, FIG. 25): significant stimulation
